19 compounds from patent US10513534B2, “2′-chloro nucleoside analogs for HCV infection” (priority 2012, dated 2019) can be followed below.

One series relates to HCV genotype 1b replicon. Put plainly: HCV replicon assay (Zluc luciferase). It counts as cell-based. The following applies: Zluc cells, 72 hours, read-out: HCV Replicon EC50. On the procedure: Huh-7-derived cell line (Zluc) that harbors an HCV genotype 1b replicon and a luciferase reporter gene was grown in Dulbecco's Modified Eagle Medium (DMEM) supplemented with 10% fetal bovine serum, 2 mM GlutaMAX, 1% MEM nonessential amino acids, 100 IU/mL penicillin, 100 μg/mL streptomycin, and 0.5 mg/mL Geneticin® (G418). For dose response testing the cells were seeded in 96-well plates at 7.5×10^3 cells per well in a volume of 50 μL, and incubated at 37° C./5% CO2. Drug solutions were made up freshly in Huh-7 media as 2× stocks. Ten additional 5-fold dilutions were prepared from these stocks in DMEM without G418. At least three hours after Zluc cells were seeded, drug treatment was initiated by adding 50 μL of drug dilutions to the plates in duplicate. Final concentrations of drug ranged from 100 μM to […]. Cells were then incubated at 37° C./5% CO2. Alternatively, compounds were tested at two concentrations (1 μM and 10 μM). […] For this, media was removed from the plates via gentle tapping. Fifty microliters of ONE-glo luciferase assay reagent was added to each well. The plates were shaken gently for 3 min at room temperature and luminescence was measured on a Victor^3 V 1420 multilabel counter (Perkin Elmer) with a 1 second read time using a 700 nm cut-off filter. The EC50 values were calculated from dose response curves from the resulting best-fit equations determined by Microsoft Excel and XLfit 4.1 software. When screening at two fixed concentrations, the results were expressed as % inhibition at 1 μM and 10 μM.
(In general: In antiviral work, replicon cells carry a viral genome segment that copies itself.)

A further series can be described thus: in vitro. The following applies: human.
The nature of series [1]: Liver triphosphate pharmacokinetics after single oral dose in CD-1 mice.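 For Ms Liver TP AUC: pmol·h/g liver normalized to a 1 µmol/kg dose.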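 For Ms Liver TP Cmax: pmol/g liver normalized to a 1 µmol/kg dose.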 It counts as in vivo. Set-up: key: + ≤ 15; 15 < ++ ≤ 50; 50 < +++ ≤ 100; 100 < ++++; BLQ = below limit of quantitation. The following applies: single oral dose 10 mg/kg in PEG 200. The method, then:
Internal standard solution was added to the homogenate followed by neutralization with 20% ammonium hydroxide solution and addition of 500 μL 1% formic acid. The tissue samples were extracted by weak anion exchange solid phase extraction (SPE). Post extraction, the eluates were evaporated under nitrogen, followed by reconstitution before injection onto the LC-MS/MS system.

For a further series, the system named is Zluc cells. Put plainly: Cytotoxicity evaluation, CellTiter-Blue Cell Viability Assay. The note with it: Zluc cells, CellTiter-Blue. Background: Alamar Blue is a resazurin reagent that responds to reducing activity.
A short description of series [2]: Plasma nucleoside pharmacokinetics after single oral dose in CD-1 mice.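 For Ms Plasma nucleoside AUC: pmol·h/mL plasma normalized to a 1 µmol/kg dose.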 It counts as in vivo. The note with it: single oral dose 10 mg/kg in PEG 200. The method, then:
Plasma samples were analyzed for nucleoside by LC-MS/MS. The internal standard (IS) was either 2′-MeG-D3 or tiapride. For protein precipitation and extraction, each plasma sample (50 μL) was treated with 500 μL of 0.2% formic acid in acetonitrile and 20 μL of the internal standard working solution. After vortexing and centrifugation, 500 μL of the sample extracts were transferred to a new plate, dried under N2 at ˜28° C. and reconstituted with 75 μL of 0.2% FA in water. The extracts were chromatographed on an Aquasil C18 column using a gradient system of 0.2% formic acid in water and acetonitrile. The analytes were detected and quantified by tandem mass spectrometry in positive ion mode on an MDS Sciex API5000 equipped with a Turbo Ionspray® interface. The calibration range was 0.500 (LLOQ) to 200 ng/mL in mouse plasma.

Where two headings read alike, the source gives them in different places.

For the compound `CCOC(=O)NCCC(C)(C)C(=O)SCCOP(=O)(NCc1ccccc1)OC[C@H]1O[C@@H](n2ccc(=O)[nH]c2=O)[C@](C)(Cl)[C@@H]1O` (mixture of isomers) [Compound 51 Mixture of P-Diastereoisomers], the concentration for a half-maximal effect (EC50) – broadly, the concentration at which the effect is half-maximal – in the series on HCV genotype 1b replicon (Hepatitis C virus, 72 h) was 0.25 to 1 µM. The CC50 in the series “in vitro” was > 50 µM.
On the same counts, the results for `CC(C)OC(=O)[C@H](C)NP(=O)(OC[C@H]1O[C@@H](n2cnc3c(=O)[nH]c(N)nc32)[C@](C)(Cl)[C@@H]1O)Oc1ccccc1` (single isomer, unassigned) [Compound 21ii Diastereomer 1] are > 10 µM and > 50 µM.
The corresponding values for `C[C@H](NP(=O)(OC[C@H]1O[C@@H](n2ccc(=O)[nH]c2=O)[C@](C)(Cl)[C@@H]1O)Oc1ccccc1)C(=O)OCC(C)(C)C` (single isomer, unassigned) [Compound 42ii Single Diastereoisomer] are < 0.25 µM and > 50 µM.
The corresponding values for `CC(C)OC(=O)C(C)NP(=O)(OCCSC(=O)C(C)(C)C)OC[C@H]1O[C@@H](n2ccc(=O)[nH]c2=O)[C@](C)(Cl)[C@@H]1O` (single isomer, unassigned) [Compound 43ii Diastereomer 2] are 0.25 to 1 µM and > 50 µM.
In the case of `CC(C)(CO)C(=O)SCCOP1(=O)OC[C@H]2O[C@@H](n3ccc(=O)[nH]c3=O)[C@](C)(Cl)[C@@H]2O1` (single isomer, unassigned) [Compound 46 Single Diastereoisomer], the EC50 with HCV genotype 1b replicon (Hepatitis C virus, 72 h) is < 0.25 µM. The CC50 in “in vitro” is > 50 µM.
On the same counts, the results for `CC(C)OC(=O)[C@H](C)NP(=O)(OC[C@H]1O[C@@H](n2ccc(N)nc2=O)[C@](C)(Cl)[C@@H]1O)Oc1ccccc1` (single isomer, unassigned) [Compound 56ii Diastereomer 1] are > 10 µM and > 50 µM.
For the compound `CC(C)(C)C(=O)SCCOP1(=O)OC[C@H]2O[C@@H](n3ccc(N)nc3=O)[C@](C)(Cl)[C@@H]2O1` (single isomer, unassigned) [Compound 61 Diastereomer 2], in series [1], the “Ms Liver TP AUC” value is “+++ (500 < +++ ≤ 1500)” and the “Ms Liver TP Cmax” value is given as “++++ (100 < ++++)”. Moreover, the concentration for a half-maximal effect (EC50) in the series on HCV genotype 1b replicon is < 0.25 µM. Besides, the CC50 in the series on Zluc cells was > 50 µM. In series [2], the “Ms Plasma nucleoside AUC” value was “+ (+ ≤ 150)” and the “Ms Plasma nucleoside Cmax” value was “+ (+ ≤ 15)”.
With `CCCCOC(=O)[C@@H](C)NP(=O)(OC[C@H]1O[C@@H](n2ccc(=O)[nH]c2=O)[C@](C)(Cl)[C@@H]1O)Oc1ccccc1` (single isomer, unassigned) [Compound 202i Diastereomer 2], in series [1], the “Ms Liver TP AUC” value is “++++ (1500 < ++++)” and the “Ms Liver TP Cmax” value was “++++ (100 < ++++)”. Moreover, in the series on HCV genotype 1b replicon, the concentration for a half-maximal effect (EC50) fell in the range of 0.25 to 1 µM. The CC50 in the series with Zluc cells was > 50 µM. In series [2], the “Ms Plasma nucleoside AUC” value was “++++ (1500 < ++++)” and the “Ms Plasma nucleoside Cmax” value was “++++ (100 < ++++)”.
As to `C[C@@H](NP(=O)(OC[C@H]1O[C@@H](n2ccc(=O)[nH]c2=O)[C@](C)(Cl)[C@@H]1O)Oc1ccccc1)C(=O)OCc1ccccc1` (single isomer, unassigned) [Compound 205i Diastereomer 2], in series [1], the “Ms Liver TP AUC” value is on record as “++++ (1500 < ++++)” and the “Ms Liver TP Cmax” value is given as “++++ (100 < ++++)”. Also, the EC50 in the series with HCV genotype 1b replicon was 0.25 to 1 µM. Further, the CC50 with Zluc cells was > 50 µM. In series [2], the “Ms Plasma nucleoside AUC” value is listed as “++++ (1500 < ++++)” and the “Ms Plasma nucleoside Cmax” value is listed as “+++ (50 < +++ ≤ 100)”.
In the case of `CC(C)OC(=O)[C@H](C)NP(=O)(OC[C@H]1O[C@@H](n2cc(F)c3c(N)ncnc32)[C@](C)(Cl)[C@@H]1O)Oc1ccccc1` (single isomer, unassigned) [Compound 207ii Diastereomer 1], in the series with HCV genotype 1b replicon (Hepatitis C virus, 72 h), the EC50 was > 10 µM. Further, the CC50 in the series “in vitro” is > 50 µM.
For `CC(C)OC(=O)[C@H](C)NP(=O)(OC[C@H]1O[C@@H](n2ccc3c(N)ncnc32)[C@](C)(Cl)[C@@H]1O)Oc1ccccc1` (single isomer, unassigned) [Compound 208ii Diastereomer 2], in series [1], the “Ms Liver TP AUC” value is given as “BLQ” and the “Ms Liver TP Cmax” value was “BLQ”. The EC50 in the series on HCV genotype 1b replicon was > 10 µM. In the series on Zluc cells, the CC50 was > 50 µM.
For `CCCCOC(=O)[C@H](C)NP(=O)(OC[C@H]1O[C@@H](n2ccc(=O)[nH]c2=O)[C@](C)(Cl)[C@@H]1O)Oc1ccccc1` (single isomer, unassigned; diastereomer 1) [Compound 202ii Diastereomer 1], in series [1], the “Ms Liver TP AUC” value is listed as “+++ (500 < +++ ≤ 1500)” and the “Ms Liver TP Cmax” value is listed as “++++ (100 < ++++)”. Moreover, the EC50 on HCV genotype 1b replicon is < 0.25 µM. The CC50 with Zluc cells is > 50 µM. Moreover, in series [2], the “Ms Plasma nucleoside AUC” value is “++++ (1500 < ++++)” and the “Ms Plasma nucleoside Cmax” value was “++++ (100 < ++++)”.
Regarding `CCOC(=O)[C@H](C)NP(=O)(OC[C@H]1O[C@@H](n2ccc(=O)[nH]c2=O)[C@](C)(Cl)[C@@H]1O)Oc1ccccc1` (single isomer, unassigned; diastereomer 1) [Compound 203ii Diastereomer 1], in series [1], the “Ms Liver TP AUC” value is “+++ (500 < +++ ≤ 1500)” and the “Ms Liver TP Cmax” value is “+++ (50 < +++ ≤ 100)”. Further, on HCV genotype 1b replicon, the EC50 is 0.25 to 1 µM. For the same compound, the CC50 in the series with Zluc cells is > 50 µM. Moreover, in series [2], the “Ms Plasma nucleoside AUC” value is “+++ (500 < +++ ≤ 1500)” and the “Ms Plasma nucleoside Cmax” value is reported as “+++ (50 < +++ ≤ 100)”.
For the compound `CCOC(=O)[C@H](CC(C)C)NP(=O)(OC[C@H]1O[C@@H](n2ccc(=O)[nH]c2=O)[C@](C)(Cl)[C@@H]1O)Oc1ccccc1` (single isomer, unassigned; diastereomer 1) [Compound 204ii Diastereomer 1], in series [1], the “Ms Liver TP AUC” value is on record as “++ (150 < ++ ≤ 500)” and the “Ms Liver TP Cmax” value was “++ (15 < ++ ≤ 50)”. Also, the EC50 at HCV genotype 1b replicon lay within 1 to 10 µM. Further, in the series with Zluc cells, the CC50 was > 50 µM. Besides, in series [2], the “Ms Plasma nucleoside AUC” value is given as “+++ (500 < +++ ≤ 1500)” and the “Ms Plasma nucleoside Cmax” value is given as “+++ (50 < +++ ≤ 100)”.
Take `CCCCOC(=O)[C@H](C)NP(=O)(OC[C@H]1O[C@@H](n2ccc(=O)[nH]c2=O)[C@](C)(Cl)[C@@H]1O)Oc1ccccc1` (single isomer, unassigned; diastereomer 2) [Compound 202ii Diastereomer 2]: in series [1], the “Ms Liver TP AUC” value is “+++ (500 < +++ ≤ 1500)” and the “Ms Liver TP Cmax” value is recorded as “+++ (50 < +++ ≤ 100)”. Besides, on HCV genotype 1b replicon, the EC50 is < 0.25 µM. For the same compound, in the series with Zluc cells, the CC50 is > 50 µM. In series [2], the “Ms Plasma nucleoside AUC” value is on record as “++++ (1500 < ++++)” and the “Ms Plasma nucleoside Cmax” value was “++++ (100 < ++++)”.
Regarding `CCOC(=O)[C@H](C)NP(=O)(OC[C@H]1O[C@@H](n2ccc(=O)[nH]c2=O)[C@](C)(Cl)[C@@H]1O)Oc1ccccc1` (single isomer, unassigned; diastereomer 2) [Compound 203ii Diastereomer 2], in series [1], the “Ms Liver TP AUC” value is given as “++ (150 < ++ ≤ 500)” and the “Ms Liver TP Cmax” value is “++ (15 < ++ ≤ 50)”. Also, on HCV genotype 1b replicon, the EC50 was in the range of 0.25 to 1 µM. Also, in the series with Zluc cells, the CC50 is > 50 µM. Moreover, in series [2], the “Ms Plasma nucleoside AUC” value was “+++ (500 < +++ ≤ 1500)” and the “Ms Plasma nucleoside Cmax” value was “+++ (50 < +++ ≤ 100)”.
In the case of `CCOC(=O)[C@H](CC(C)C)NP(=O)(OC[C@H]1O[C@@H](n2ccc(=O)[nH]c2=O)[C@](C)(Cl)[C@@H]1O)Oc1ccccc1` (single isomer, unassigned; diastereomer 2) [Compound 204ii Diastereomer 2], in series [1], the “Ms Liver TP AUC” value is “++ (150 < ++ ≤ 500)” and the “Ms Liver TP Cmax” value was “++ (15 < ++ ≤ 50)”. In addition, the EC50 at HCV genotype 1b replicon was in the range of 0.25 to 1 µM. Further, the CC50 in the series with Zluc cells was > 50 µM. In series [2], the “Ms Plasma nucleoside AUC” value is given as “++++ (1500 < ++++)” and the “Ms Plasma nucleoside Cmax” value is given as “++++ (100 < ++++)”.
Turning to `C[C@@]1(Cl)[C@H](O)[C@@H](CO)O[C@H]1n1cnc2c(N)ncnc21` [Compound 302, 2′-C-Chloro-2′-C-methyladenosine], the EC50 in the series on HCV genotype 1b replicon (Hepatitis C virus, 72 h) was > 10 µM. Also, in “in vitro”, the CC50 is > 50 µM.
On the same counts, the results for `C[C@@]1(Cl)[C@H](O)[C@@H](CO)O[C@H]1n1cc(F)c2c(N)ncnc21` [Compound 303] are > 10 µM and > 50 µM.
